Laboratory results from patent US20060177430A1, “Treatment of ocular disorders with ophthalmic formulations containing methylsulfonylmethane as a transport enhancer” (Chakshu Research Inc, priority 2002, published 2006).
In brackets after ≈: the same amount, converted by molar mass. Like-named read-outs stand apart in the source and are kept apart here.

Experiments:
[1] = Methylene blue permeation through MSM pre-treated porcine intestinal membrane (Example 17); format: in vitro ADME
Experimental: This experiment was designed to investigate if there is a long-lasting enhancement effect of MSM, i.e., if there is a long-lasting disruption of membrane permeability after the formula was removed or washed-out after application.
Methylene blue was the active. The tissue model was porcine intestinal membrane, which was pre-treated. In this experiment all membranes were soaked for 24 hours in a MSM containing pre-treatment solution. […] After the 24-hour soaking period, “Test A” membrane was thoroughly washed, while “Test B” membrane was only briefly rinsed. Those membrane specimens were then mounted as described earlier on methylene blue containing glass vials, which were then immersed as described earlier into a larger glass vial containing receptor medium containing. Only the MSM-enhanced donor solution contained, besides methylene blue, also MSM for enhancement purposes. • Control: No MSM in 24-hour pre-treatment, no MSM enhancer in donor • Test A: 24-hour MSM pretreatment w/thorough washing, no MSM enhancer • Test B: 24-hour MSM pretreatment w/brief rinsing, no MSM enhancer • MSM-enhanced: No MSM in 24-hour pre-treatment, w/MSM enhancer

[2] = Bovine cornea penetration, MSM as enhancer, methylene blue as active (Example 9); format: in vitro ADME
Description: In this example the same principal study design and protocol was used as described in Example 8. In this experiment, we selected methylene blue again as the species for which permeation enhancement was desired; however, as tissue model we selected bovine cornea. The bovine cornea was dissected from bovine eyes procured from slaughterhouses. We selected bovine cornea tissue as the test membrane because it is known to be a very difficult membrane to penetrate. Bovine cornea is about 4-6 times thicker than the human corneal membrane.

[3] = Intestinal membrane permeation, MSM as enhancer, methylene blue as active (Example 8); format: in vitro ADME, porcine
Description: In this experiment we selected methylene blue as the species for which permeation enhancement was desired. As tissue model for this experiment we selected porcine intestinal membrane. A small glass vial was filled with test solution and capped with the test membrane (tissue layer of defined thickness). The membrane tissue was hold in place with a rubber O-ring and a screw cap of defined surface area opening. This test unit was immersed into a large glass vial filled with receptor medium. From this large glass vial, small sample receptor medium volumes were periodically removed for analysis.

[4] = Dexamethasone solubility experiment with increasing MSM concentration (Example 16); format: physicochemical
[5] = Intestinal membrane permeation, MSM as enhancer, dexamethasone as active (Example 15); format: in vitro ADME
Description: The same study design and experimental setup was used as described in the above experiments.

[6] = 30-minute time point; 8 μl eye drop on rat cornea; MSM versus PBS

CN(C)c1ccc2nc3ccc(=[N+](C)C)cc-3sc2c1 [methylene blue]
permeation rate of enhanced solution relative to control ([1]; MSM 50 mg/mL in donor): approximately 2 times
permeation through MSM-pretreated membrane versus control ([1]; MSM pretreatment, brief rinsing, no MSM in donor): slightly higher
remaining enhancement after thorough washing of MSM-pretreated membrane ([1]; MSM pretreatment, thorough washing, no MSM in donor): no detectable remaining enhancement effect
Absorbance @ 668 nm of receptor medium (methylene blue permeation) ([1]; Time 0.27, Control: no MSM pre-treatment, no MSM enhancer): 0.01
Absorbance @ 668 nm of receptor medium (methylene blue permeation) ([1]; Time 0.27, Test A: MSM pretreatment w/thorough washing, no MSM enhancer): 0.01
Absorbance @ 668 nm of receptor medium (methylene blue permeation) ([1]; Time 0.27, Test B: MSM pretreatment w/brief rinsing, no MSM enhancer): 0.019
Absorbance @ 668 nm of receptor medium (methylene blue permeation) ([1]; Time 0.50, Control: no MSM pre-treatment, no MSM enhancer): 0.025
Absorbance @ 668 nm of receptor medium (methylene blue permeation) ([1]; Time 0.50, MSM-enhanced: no pre-treatment, MSM 50 mg/mL in donor): 0.06
Absorbance @ 668 nm of receptor medium (methylene blue permeation) ([1]; Time 0.50, Test A: MSM pretreatment w/thorough washing, no MSM enhancer): 0.031
Absorbance @ 668 nm of receptor medium (methylene blue permeation) ([1]; Time 0.50, Test B: MSM pretreatment w/brief rinsing, no MSM enhancer): 0.041
Absorbance @ 668 nm of receptor medium (methylene blue permeation) ([1]; Time 0.75, Control: no MSM pre-treatment, no MSM enhancer): 0.037
Absorbance @ 668 nm of receptor medium (methylene blue permeation) ([1]; Time 0.75, Test A: MSM pretreatment w/thorough washing, no MSM enhancer): 0.043
Absorbance @ 668 nm of receptor medium (methylene blue permeation) ([1]; Time 0.75, Test B: MSM pretreatment w/brief rinsing, no MSM enhancer): 0.055
Absorbance @ 668 nm of receptor medium (methylene blue permeation) ([1]; Time 1.00, Control: no MSM pre-treatment, no MSM enhancer): 0.052
Absorbance @ 668 nm of receptor medium (methylene blue permeation) ([1]; Time 1.00, MSM-enhanced: no pre-treatment, MSM 50 mg/mL in donor): 0.13
Absorbance @ 668 nm of receptor medium (methylene blue permeation) ([1]; Time 1.00, Test A: MSM pretreatment w/thorough washing, no MSM enhancer): 0.064
Absorbance @ 668 nm of receptor medium (methylene blue permeation) ([1]; Time 1.00, Test B: MSM pretreatment w/brief rinsing, no MSM enhancer): 0.079
Absorbance @ 668 nm of receptor medium (methylene blue permeation) ([1]; Time 1.50, Control: no MSM pre-treatment, no MSM enhancer): 0.078
Absorbance @ 668 nm of receptor medium (methylene blue permeation) ([1]; Time 1.50, MSM-enhanced: no pre-treatment, MSM 50 mg/mL in donor): 0.204
Absorbance @ 668 nm of receptor medium (methylene blue permeation) ([1]; Time 1.50, Test A: MSM pretreatment w/thorough washing, no MSM enhancer): 0.089
Absorbance @ 668 nm of receptor medium (methylene blue permeation) ([1]; Time 1.50, Test B: MSM pretreatment w/brief rinsing, no MSM enhancer): 0.118
Absorbance @ 668 nm of receptor medium (methylene blue permeation) ([1]; Time 2.00, Control: no MSM pre-treatment, no MSM enhancer): 0.114
Absorbance @ 668 nm of receptor medium (methylene blue permeation) ([1]; Time 2.00, MSM-enhanced: no pre-treatment, MSM 50 mg/mL in donor): 0.281
Absorbance @ 668 nm of receptor medium (methylene blue permeation) ([1]; Time 2.00, Test A: MSM pretreatment w/thorough washing, no MSM enhancer): 0.125
Absorbance @ 668 nm of receptor medium (methylene blue permeation) ([1]; Time 2.00, Test B: MSM pretreatment w/brief rinsing, no MSM enhancer): 0.16
Absorbance @ 668 nm of receptor medium (methylene blue permeation) ([1]; Time 24.00, Control: no MSM pre-treatment, no MSM enhancer): 0.92
Absorbance @ 668 nm of receptor medium (methylene blue permeation) ([1]; Time 24.00, MSM-enhanced: no pre-treatment, MSM 50 mg/mL in donor): 1.393
Absorbance @ 668 nm of receptor medium (methylene blue permeation) ([1]; Time 24.00, Test A: MSM pretreatment w/thorough washing, no MSM enhancer): 0.939
Absorbance @ 668 nm of receptor medium (methylene blue permeation) ([1]; Time 24.00, Test B: MSM pretreatment w/brief rinsing, no MSM enhancer): 1.112
enhancement factor of cumulative permeation when MSM is present in the donor solution ([2]; MSM 27 mg/mL versus control): > 3
lag time ([2]; MSM present in the donor solution): less than 12 hours
Absorbance @ 668 nm of receptor medium (methylene blue permeation) ([2]; Time 43.5 Hr, Control: no MSM): 0.024
Absorbance @ 668 nm of receptor medium (methylene blue permeation) ([2]; Time 43.5 Hr, MSM 27 mg/mL in donor): 0.093
Absorbance @ 668 nm of receptor medium (methylene blue permeation) ([2]; Time 52.75 Hr, Control: no MSM): 0.03
Absorbance @ 668 nm of receptor medium (methylene blue permeation) ([2]; Time 52.75 Hr, MSM 27 mg/mL in donor): 0.13
Absorbance @ 668 nm of receptor medium (methylene blue permeation) ([2]; Time 65 Hr, Control: no MSM): 0.035
Absorbance @ 668 nm of receptor medium (methylene blue permeation) ([2]; Time 65 Hr, MSM 27 mg/mL in donor): 0.163
Absorbance @ 668 nm of receptor medium (methylene blue permeation) ([2]; Time 75.5 Hr, Control: no MSM): 0.042
Absorbance @ 668 nm of receptor medium (methylene blue permeation) ([2]; Time 75.5 Hr, MSM 27 mg/mL in donor): 0.195
Absorbance @ 668 nm of receptor medium (methylene blue permeation) ([2]; Time 89 Hr, Control: no MSM): 0.057
Absorbance @ 668 nm of receptor medium (methylene blue permeation) ([2]; Time 89 Hr, MSM 27 mg/mL in donor): 0.213
Absorbance @ 668 nm of receptor medium (methylene blue permeation) ([2]; Time 97.5 Hr, Control: no MSM): 0.076
Absorbance @ 668 nm of receptor medium (methylene blue permeation) ([2]; Time 97.5 Hr, MSM 27 mg/mL in donor): 0.265
lag time ([2]; without MSM): about 24 hours
enhancement factor of cumulative permeation when MSM is present in the donor solution ([3]; MSM 27 mg/mL versus control): ~2
Absorbance at 668 nm of receptor medium (methylene blue permeation) ([3]; Time 0.55 Hr, Control: no MSM): 0.021
Absorbance at 668 nm of receptor medium (methylene blue permeation) ([3]; Time 0.55 Hr, MSM 27 mg/mL in donor): 0.023
Absorbance at 668 nm of receptor medium (methylene blue permeation) ([3]; Time 1.9 Hr, Control: no MSM): 0.061
Absorbance at 668 nm of receptor medium (methylene blue permeation) ([3]; Time 1.9 Hr, MSM 27 mg/mL in donor): 0.176
Absorbance at 668 nm of receptor medium (methylene blue permeation) ([3]; Time 2.9 Hr, Control: no MSM): 0.162
Absorbance at 668 nm of receptor medium (methylene blue permeation) ([3]; Time 2.9 Hr, MSM 27 mg/mL in donor): 0.323
Absorbance at 668 nm of receptor medium (methylene blue permeation) ([3]; Time 4 Hr, Control: no MSM): 0.234
Absorbance at 668 nm of receptor medium (methylene blue permeation) ([3]; Time 4 Hr, MSM 27 mg/mL in donor): 0.433
Absorbance at 668 nm of receptor medium (methylene blue permeation) ([3]; Time 5.7 Hr, Control: no MSM): 0.283
Absorbance at 668 nm of receptor medium (methylene blue permeation) ([3]; Time 5.7 Hr, MSM 27 mg/mL in donor): 0.563
Absorbance at 668 nm of receptor medium (methylene blue permeation) ([3]; Time 6.9 Hr, Control: no MSM): 0.408
Absorbance at 668 nm of receptor medium (methylene blue permeation) ([3]; Time 6.9 Hr, MSM 27 mg/mL in donor): 0.738

C[C@@H]1C[C@H]2[C@@H]3CCC4=CC(=O)C=C[C@]4(C)[C@@]3(F)[C@@H](O)C[C@]2(C)[C@@]1(O)C(=O)CO [dexamethasone]
solubility ([4]; MSM concentration 250 mg/mL): 45 mg/100 mL
solubility change ([4]; MSM concentration of 30 mg/mL): not significantly increased
solubility ([4]; MSM solution, aqueous with cosolvent or surfactant or cyclodextrin, MSM 30 mg/ml, read-out: Solubility of Dexamethasone): 0.16 mg/mL (≈ 408 µM)
solubility ([4]; MSM solution, aqueous with cosolvent or surfactant or cyclodextrin, MSM 50 mg/ml, read-out: Solubility of Dexamethasone): 0.175 mg/mL (≈ 446 µM)
solubility ([4]; MSM solution, aqueous with cosolvent or surfactant or cyclodextrin, MSM 100 mg/ml, read-out: Solubility of Dexamethasone): 0.19 mg/mL (≈ 484 µM)
solubility ([4]; MSM solution, aqueous with cosolvent or surfactant or cyclodextrin, MSM 150 mg/ml, read-out: Solubility of Dexamethasone): 0.27 mg/mL (≈ 688 µM)
solubility ([4]; MSM solution, aqueous with cosolvent or surfactant or cyclodextrin, MSM 200 mg/ml, read-out: Solubility of Dexamethasone): 0.34 mg/mL (≈ 866 µM)
solubility ([4]; MSM solution, aqueous with cosolvent or surfactant or cyclodextrin, MSM 250 mg/ml, read-out: Solubility of Dexamethasone): 0.45 mg/mL (≈ 1150 µM)
water solubility ([4]; room temperature, no MSM): 10 mg/100 mL
increase on the diffusion rate ([5]; 27 mg MSM/ml): 25%
permeation increase over control ([5]; 200 mg MSM/mL): approximately 50%

O=C([O-])CN(CC(=O)[O-])[14CH2][14CH2]N(CC(=O)[O-])CC(=O)[O-].[Na+].[Na+].[Na+].[Na+] [^14C-EDTA, Ethylenediamine tetraacetic acid-1,2-^14C tetrasodium]
increase in amount in the aqueous humor in the presence of MSM [6]: approximately 5 fold
